Source: patent US20050209157A1, “Short bioactive peptides and methods for their use” (priority 2001, published 2005)
Where two headings read alike, the source gives them in different places. No end group written: not given here.

Tests used:
WI38 = conditions: MTT, 24 hours with peptide; normal fibroblast line
Protocol: (§3) Viability of cells is determined by the dye response. In the following procedure, approximately 1.5×10^4 cells per well were added and viability was determined with the cells in a semi-confluent state. The assay was performed in a 96-well microtiter plate. After addition of peptide, the plate was set for 24 hours. MTT (5 mg/ml in phenol red-free RPMI-1640, 20 μl) was added to each well including positive control wells untreated with peptide. The plate was incubated at 37° C. for 4 hours. The liquid contents of each well was removed, and isopropanol with 0.1 M HCl (100 μl) was added to each well. The plate was sealed with parafilm to prevent evaporation of the isopropanol. The plate is allowed to rest for 5-10 minutes in order to solubilize the precipitate. Purified water (100 μl) was added to each well. Absorbance was determined with an ELISA Reader instrument. Color intensity at 540 nm is proportional to viability of cells.
(§4) WI38 (ATCC No. CCL75) is a normal fibroblast line of lung diploid cells, MCF7 (ATCC No. HTB22) is a breast adenocarcinoma tumor cell line, SW480 (ATCC No. CCL228) is a colon adenocarcinoma tumor cell line, BMKC is a cloned melanoma line derived from Bowes melanoma line HMCB (ATCC No. CRL9607), H1299 (ATCC No. CRL5803) is a lung large cell carcinoma tumor line, HeLaS3 (ATCC No. CCL2.2) is a cervical epitheleal carcinoma tumor cell line, and PC3 (ATCC No. CRL1435) is a prostate adenocarcinoma tumor cell line.

in vitro [1] = format: cell-based, human; conditions: human, human red blood cells, pH 7, hemolytic assay, concentration at 50% hemolysis, 1 hour at 37° C.; read-out: LD50
H1299 = experiment: Anti-cancer assay, MTT, LD50; format: cell-based; conditions: 24 hours with peptide, lung large cell carcinoma
Excerpt: (§1) Numbers are LD50 values (μg/mL).

MCF7 = experiment: Anti-cancer assay, MTT, LD50; format: cell-based; conditions: MCF7 breast adenocarcinoma line, MTT, 24 hours with peptide
Excerpt: as §1

SW480 = experiment: Anti-cancer assay, MTT, LD50; format: cell-based; conditions: SW480 colon adenocarcinoma line, 24 hours with peptide
Excerpt: as §1

BMKC = experiment: Anti-cancer assay, MTT, LD50; format: cell-based; conditions: BMKC cloned melanoma line, 24 hours with peptide
Excerpt: as §1

PC3 = experiment: Anti-cancer assay, MTT, LD50; format: cell-based; conditions: 24 hours with peptide, prostate adenocarcinoma
Excerpt: as §1

HeLaS3 = experiment: Anti-cancer assay, MTT, LD50; format: cell-based; conditions: 24 hours with peptide, cervical carcinoma
Excerpt: as §1

in vitro [2] = conditions: human, WI38 normal lung fibroblast cells, LD50 WI38, WI38 normal lung fibroblast line, MTT, 24 hours with peptide
Protocol: as §3, §4

[3] = system: yeast (Saccharomyces cerevisiae); experiment: Antimicrobial assay I, yeast assay in RPMI 1640; format: cell-based; conditions: RPMI 1640 media
[4] = system: Pseudomonas aeruginosa ATCC 9027; experiment: Antimicrobial assay I, MIC by OD measurement; format: cell-based; conditions: 37° C. for 24 hours, absorbance 620 nm
[5] = system: Staphylococcus aureus ATCC 6538; experiment: Antimicrobial assay I, MIC by OD measurement; format: cell-based; conditions: 37° C. for 24 hours, absorbance 620 nm
P. aeruginosa H374 [6] = format: cell-based, Pseudomonas aeruginosa; conditions: for MIC Cm-comb.: MIC of chloramphenicol with peptide at ¼ MIC; for MIC Nal-comb.: MIC of nalidixic acid with peptide at ¼ MIC; for FIC Index: 0.5 or less = synergy
Protocol: (§2) The synergistic effects of the inventive peptides with either chloramphenicol or nalidixic acid against efflux mutants of Pseudomonas aeruginosa were investigated. The MIC values were determined for either nalidixic acid or chloramphenicol alone as baselines. Peptides were added at their ¼ MIC concentration, and the concentration of either nalidixic acid or chloramphenicol to arrive at the MIC was determined. […] The fractional inhibitory concentration (FIC) index was used to determine synergy between peptides and antibiotics. Two-fold serial dilutions of antibiotic were tested in the presence of a constant amount of peptide, equal to one quarter of peptide MIC. The FIC index was determined as follows: FIC=0.25+MICantibiotic in combination/MICantibiotic alone. An FIC index of 0.5 or less is considered as synergy.

P. aeruginosa H774 = format: cell-based, Pseudomonas aeruginosa; conditions: P. aeruginosa H744; nalidixic acid + peptide at ¼ MIC; 0.5 or less = synergy
Protocol: as §2

P. aeruginosa = format: cell-based, Pseudomonas aeruginosa; conditions: P. aeruginosa H744; MIC of nalidixic acid with peptide at ¼ MIC
Protocol: as §2

[7] = system: human red blood cells (RBC); experiment: in vitro; format: cell-based; conditions: hemolytic assay, concentration at 50% hemolysis, 1 hour at 37° C.
S. typhimurium 14028S = format: cell-based, Salmonella typhimurium; conditions: mean of three; 16 to 20 hours at 35° C.; in µg/mL
P. aeruginosa H374 [8] = format: cell-based, Pseudomonas aeruginosa; conditions: mean of three; 16 to 20 hours at 35° C.
E. coli UB1005 = format: cell-based, Escherichia coli; conditions: mean of three; 16 to 20 hours at 35° C.; in µg/mL
[9] = chloramphenicol + peptide at ¼ MIC
[10] = nalidixic acid + peptide at ¼ MIC, FIC=0.25+MIC comb/MIC alone

| Substance | WI38 LD50 (WI38) | HC50 at 1 h (in vitro [1]) | H1299 LD50 (H1299) | LD50 MCF7 (MCF7) | LD50 SW480 (SW480) | LD50 BMKC (BMKC) | PC3 LD50 (PC3) | HeLaS3 LD50 (HeLaS3) | CC50 at 24 h (in vitro [2]) | yeast (MIC or MFC) [3] | paerug9027 (MIC) [4] | staph6538 (MIC) [5] | MIC Cm-comb. (P. aeruginosa H374 [6]) | MIC Nal-comb. (P. aeruginosa H374 [6]) | FIC Index (P. aeruginosa H374 [6]; [9]) | FIC Index (P. aeruginosa H374 [6]; [10]) | FIC Index (P. aeruginosa H774) | MIC Nal-comb. (P. aeruginosa) | other results |
| --- | --- | --- | --- | --- | --- | --- | --- | --- | --- | --- | --- | --- | --- | --- | --- | --- | --- | --- | --- |
| FAKLLAKALKLKL-NH2 [P101] | 300 µg/mL | 550 µg/mL | 340 µg/mL | 250 µg/mL | 170 µg/mL | 160 µg/mL | 730 µg/mL | 170 µg/mL | 300 µg/mL | 100 µg/mL | 25 µg/mL | 10 µg/mL | 16 µg/mL | 5000 µg/mL | 1.25 | 1.25 | 1.25 | 624 µg/mL | – |
| FAKLLAKALKKFL-NH2 [P118] | 170 µg/mL | 700 µg/mL | 74 µg/mL | 70 µg/mL | 115 µg/mL | 135 µg/mL | 330 µg/mL | 87 µg/mL | 170 µg/mL | 100 µg/mL | 100 µg/mL | 10 µg/mL | 16 µg/mL | 2500 µg/mL | 1.25 | 0.75 | 1.25 | 624 µg/mL | – |
| FAKLLAKALKKL-NH2 [P103] | 26 µg/mL | 650 µg/mL | 150 µg/mL | 46 µg/mL | 90 µg/mL | 75 µg/mL | 330 µg/mL | 70 µg/mL | 26 µg/mL | 100 µg/mL | 25 µg/mL | 10 µg/mL | 8 µg/mL | 625 µg/mL | 0.75 | 0.375 | 1.25 | 624 µg/mL | – |
| KTKLFKKFAKKLAKKLKKLAKKL-OH [P80] | 28 µg/mL | 900 µg/mL | 64 µg/mL | 29 µg/mL | 35 µg/mL | 76 µg/mL | 28 µg/mL | 97 µg/mL | 28 µg/mL | 100 µg/mL | 100 µg/mL | 10 µg/mL | 4 µg/mL | 2500 µg/mL | 0.5 | 0.75 | 1.25 | 624 µg/mL | – |
| KLALKLALKALKAAKLA-NH2 [P150] | 125 µg/mL | 650 µg/mL | 185 µg/mL | 160 µg/mL | 235 µg/mL | 190 µg/mL | 74 µg/mL | 320 µg/mL | 125 µg/mL | > (> indicates greater than 200 μg/mL) | 10 µg/mL | 100 µg/mL | 8 µg/mL | 1250 µg/mL | 0.75 | 0.5 | 0.75 | 312 µg/mL | – |
| FAKLLAKLAKLKL-NH2 [P66] | 240 µg/mL | 600 µg/mL | 130 µg/mL | 90 µg/mL | 145 µg/mL | 200 µg/mL | 170 µg/mL | 140 µg/mL | 240 µg/mL | 100 µg/mL | 50 µg/mL | 5 µg/mL | 16 µg/mL | 5000 µg/mL | 1.25 | 1.25 | 1.25 | 624 µg/mL | – |
| FAKKLAKKLKKLAKKLAKLAKKL-NH2 [P307, reference compound] | 75 µg/mL | – | 160 µg/mL | 38 µg/mL | 73 µg/mL | 83 µg/mL | 66 µg/mL | 100 µg/mL | 75 µg/mL | – | – | – | 2 µg/mL | 625 µg/mL | 0.375 | 0.375 | 0.5 | 156 µg/mL | LD50 [7]: > (> indicates greater than 1000) |
| FAKKLAKKLKKLAKKLAK-OH [P71] | 355 µg/mL | – | 320 µg/mL | 190 µg/mL | 250 µg/mL | 445 µg/mL | 270 µg/mL | 570 µg/mL | 355 µg/mL | 200 µg/mL | 15 µg/mL | 15 µg/mL | 8 µg/mL | 2500 µg/mL | 0.75 | 0.75 | 1.25 | 624 µg/mL | S. typhimurium 14028S MIC (S. typhimurium 14028S): 8; P. aeruginosa H374 MIC (P. aeruginosa H374 [8]): 4 µg/mL; E. coli UB1005 MIC (E. coli UB1005): 2 |
